Entries after “also recorded” stand apart in the source; their conditions may differ.

Common to all, as to assay type: cell-based
One experiment relates to glucose transporter. The experiment can be described thus: Inhibition by cytochalasin B of 2-deoxyglucose uptake into matured adipocytes. The following applies: FIG. 13. The method, then:
The influence of cytochalasin B on 2-deoxyglucose uptake into matured adipocytes during the stimulation of the sample into the cells was tested in the same manner as in the method described in Example 5 on whether the enhancing action for glucose uptake of the ethanol extract fraction from root portions of Angelica keiskei koidz. shown in Example 16 is inhibited by cytochalasin B, which is an inhibitor of glucose transporter.
Specifically, as a sample, a group with addition of a dimethyl sulfoxide solution of the ethanol extract fraction from root portions of Angelica keiskei koidz. so as to have a final concentration of 0.1% was set. Here, there were set a group without addition of the sample as a negative control, and a group with addition of insulin so as to have a final concentration of 1 μg/mL as a positive control. Furthermore, a group with addition of cytochalasin B (manufactured by nacalai tesque, 10435-81) so as to have a final concentration of 40 μM was set concurrently to the timing of the setting of the group with addition of insulin in each group. Thereafter, the amount of 2-deoxy-[1,2-^3H(N)]-glucose uptake into the cells was determined in the same manner.

For experiment [1], the system named is matured adipocytes (3T3-L1 cells). The experiment can be described thus: Synergistic enhancing action of glucose uptake with low concentration-insulin in matured adipocytes. Conditions: insulin alone, final concentration 0.001 μg/mL; FIG. 14. The procedure: As evaluation of the synergistic enhancing action of glucose uptake by the ethanol extract fraction from root portions of Angelica keiskei koidz. prepared in Example 14 and a low concentration-insulin, the amount of 2-deoxyglucose uptake into matured adipocytes during the stimulation of the sample in the adipocytes was determined partly in the same manner as in the method described in Example 5.
The matured adipocytes were prepared in the same manner as in the method described in item (1) of Example 5.
After the termination of the culture, the medium was removed, and the cells were washed twice with 0.1% (w/v) bovine serum albumin (manufactured by Sigma, A8022)-containing Dulbecco's modified Eagle's medium. Thereafter, 1 mL of the same medium containing a dimethyl sulfoxide solution of the ethanol extract fraction from root portions of Angelica keiskei koidz. having a final concentration of 0.02% was added thereto. The cells were cultured overnight at 37° C. in the presence of 5% carbon dioxide gas. A group without containing the ethanol extract fraction from root portions of Angelica keiskei koidz. was set as a negative control. […] Thereafter, the amount of 2-deoxy-[1,2-^3H(N)]-glucose uptake into the cells was determined in the same manner as in the method described in item (2) of Example 5.

In experiment [2] the test system is Preadipocyte cell line 3T3-L1. The experiment can be described thus: Induction of adipocyte differentiation, amount of biosynthesized triglyceride. Conditions: positive control, 4 μl of aqueous solution containing 5 mg/mL insulin. The method, then:
The induction of an adipocyte differentiation was carried out by partially modifying the above-mentioned method of Rubin C. S. et al. Preadipocyte cell line 3T3-L1 (ATCC CCL-92.1) was suspended in a 10% bovine fetal serum (manufactured by GIBCO)-containing Dulbecco's modified Eagle's medium (manufactured by Sigma, D6046) containing 200 μM ascorbic acid (hereinafter referred to as A-D-MEM) so as to have a concentration of 4×10^3 cells/mL, and the suspension was put in each well of a 12-well microtiter plate in an amount of 2 mL per well. The cells were cultured at 37° C. for 7 days in the presence of 5% carbon dioxide gas. The medium was exchanged with the same medium on the second day and the fourth day. […] Here, there were set a group with addition of 4 μl of an aqueous solution containing 5 mg/mL insulin (manufactured by TAKARA BIO INC.) as a positive control, and a group with addition of water as a negative control. […] The amount of biosynthesized triglyceride in the adipocytes was determined as an index of induction of differentiation into matured adipocytes, and as evaluation of insulin-mimetic action. […] The precipitate was dissolved in 100 μl of isopropanol, and thereafter the amount of triglyceride contained in 10 μl of the resulting solution was determined with Triglyceride G-Test (manufactured by Wako Pure Chemical Industries, Ltd., code 276-69801). […]

Experiment [3] relates to matured adipocytes (3T3-L1 cells). The experiment can be described thus: Enhancing action for glucose uptake (2-deoxyglucose uptake) into matured adipocytes. Conditions: positive control, insulin final concentration 1 μg/mL.
For experiment [4] the test system is unchanged. The experiment can be described thus: Glucose uptake by insulin stimulation into adipocytes induced to be differentiated by the sample. Conditions: adipocytes differentiated by insulin (4 μl of 5 mg/mL); insulin stimulation 1 μg/mL; FIG. 15. An excerpt:
Adipocytes which were induced to be differentiated by the ethanol extract fraction from Angelica keiskei koidz. prepared in Example 14 were obtained, and thereafter it was confirmed whether the glucose uptake into the cells was enhanced by insulin stimulation.
Specifically, as a sample, there was set a group with addition of a dimethyl sulfoxide solution of the ethanol extract fraction from root portions of Angelica keiskei koidz. to have a final concentration of 0.05%. A group with addition of 4 μl of an aqueous solution containing 5 mg/mL insulin (manufactured by TAKARA BIO INC.) was set as a positive control. […]
Next, the amount of 2-deoxyglucose uptake into the resulting matured adipocytes during the insulin stimulation in the adipocytes was determined in the same manner as in the method described in Example 5.
Specifically, a group without addition of insulin or a group with addition of insulin so as to have a final concentration of 1 μg/mL was set in each of the matured adipocytes. Thereafter, the amount of 2-deoxy-[1,2-^3H(N)]-glucose uptake into the cells was determined in the same manner.

With `C=C1[C@@H](C)[C@H]2[C@H](Cc3ccccc3)NC(=O)[C@]23OC(=O)/C=C/[C@H](O)CCC[C@@H](C)C/C=C/[C@H]3[C@@H]1O` [cytochalasin B], the “inhibition of 2-deoxy-[1,2-3H(N)]-glucose uptake” value in the experiment with glucose transporter (cytochalasin B final concentration 40 μM added concurrently with each group) is on record as “almost completely inhibited”.

On to insulin, for which the “enhancement of 2-deoxy-[1,2-3H(N)]-glucose uptake” value in experiment [1] was “enhancement of 2-deoxy-[1,2-^3H(N)]-glucose uptake was found”. The “induction of triglyceride biosynthesis (adipocyte differentiation)” value in experiment [2] is “induction of triglyceride biosynthesis could be confirmed”. In addition, the “enhancement of 2-deoxy[1,2-3H(N)]-glucose uptake” value in experiment [3] was “enhancement of 2-deoxy[1,2-^3H(N)]-glucose uptake was found; also recorded: enhancement of 2-deoxy-[1,2-^3H(N)]-glucose uptake was found”. In addition, in the experiment on glucose transporter (insulin 1 μg/mL plus cytochalasin B 40 μM), the “2-deoxy-[1,2-3H(N)]-glucose uptake with concurrent cytochalasin B” value is given as “almost completely inhibited”. In experiment [4], the “enhancement of 2-deoxy[1,2-3H(N)]-glucose uptake by insulin stimulation” value was “enhancement of 2-deoxy[1,2-^3H(N)]-glucose uptake was found by insulin stimulation”.

The values are drawn from patent publication US20080044498A1, “Therapeutic or prophylactic agent, and method of treating or preventing a disease” (priority 2002, published 2008).
